Reference: patent US20100113540A1, “Azole and Thiazole Derivatives and Their Use” (ARGENTA DISCOVERY LIMITED, priority 2005, published 2010)
Counter-ions that a name gives are not always drawn.

Biological target: T1, M3 muscarinic receptor (Homo sapiens, UniProt P20309)
T1 construct: purchased
Assay: Muscarinic receptor radioligand binding assay ([3H]-NMS), M3
Settings: cell membranes expressing human M3 receptor
Description: The inhibitory effects of compounds of the present invention at the M3 muscarinic receptor and (in the case of Example 77) the β2 adrenergic receptor, were determined by the following binding assays:
Radioligand binding studies utilising [^3H]-N-methyl scopolamine ([^3H]-NMS) and commercially available cell membranes expressing the human muscarinic receptors (M2 and M3) were used to assess the affinity of muscarinic antagonists for M2 and M3 receptors. Membranes in TRIS buffer were incubated in 96-well plates with [^3H]-NMS and M3 antagonist at various concentrations for 3 hours. Membranes and bound radioligand were then harvested by filtration and allowed to dry overnight. Scintillation fluid was then added and the bound radioligand counted using a Can berra Packard Topcount scintillation counter

T1 sequence (P20309 whole entry): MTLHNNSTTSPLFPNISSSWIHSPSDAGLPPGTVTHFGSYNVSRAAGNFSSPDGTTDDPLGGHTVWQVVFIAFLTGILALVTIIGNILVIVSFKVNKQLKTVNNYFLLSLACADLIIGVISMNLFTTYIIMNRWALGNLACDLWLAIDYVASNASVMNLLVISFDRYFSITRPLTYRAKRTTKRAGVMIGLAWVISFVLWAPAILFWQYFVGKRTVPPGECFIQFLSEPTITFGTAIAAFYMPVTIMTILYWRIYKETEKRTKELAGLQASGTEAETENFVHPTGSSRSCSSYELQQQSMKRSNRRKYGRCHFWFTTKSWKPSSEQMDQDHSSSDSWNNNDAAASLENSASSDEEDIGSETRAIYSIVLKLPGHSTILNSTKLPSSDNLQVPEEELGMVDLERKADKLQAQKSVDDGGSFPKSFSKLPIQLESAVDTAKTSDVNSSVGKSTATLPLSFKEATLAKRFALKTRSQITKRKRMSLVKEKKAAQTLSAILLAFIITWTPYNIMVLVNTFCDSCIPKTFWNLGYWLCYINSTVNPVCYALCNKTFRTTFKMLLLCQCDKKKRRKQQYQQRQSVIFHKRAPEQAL

Compound	Ki [nM]
C[N+](C)(CCCOc1ccccc1)CCc1cnc(C(O)(c2ccccc2)C2CCCCC2)o1 (single isomer, unassigned) [Example 68, {2-[2-(Cyclohexyl-hydroxy-phenyl-methyl)-oxazol-5-yl]-ethyl}-dimethyl-(3-phenoxy-propyl)-ammonium bromide]	1 to 10
C[N+](C)(CCCOc1ccccc1)CCc1cnc(C(O)(c2ccccc2)C2CCCCC2)o1 (single isomer, unassigned) [Example 69, {2-[2-(Cyclohexyl-hydroxy-phenyl-methyl)-oxazol-5-yl]-ethyl}-dimethyl-(3-phenoxy-propyl)-ammonium bromide]	< 1
C[N+](C)(CCCOc1ccccc1)Cc1cnc([C@@](O)(c2ccccc2)C2CCCC2)o1 (stereo in doubt) [Example 36, [2-(Cyclopentyl-hydroxy-phenyl-methyl)-oxazol-5-ylmethyl]-dimethyl-(3-phenoxy-propyl)-ammonium bromide]	< 1
C[N+](C)(Cc1ccccc1)Cc1cnc([C@@](O)(c2ccccc2)C2CCCC2)o1 (stereo in doubt) [Example 60, Benzyl-[2-(cyclopentyl-hydroxy-phenyl-methyl)-oxazol-5-ylmethyl]-dimethyl-ammonium bromide]	> 10
CN(C)Cc1cnc(C(O)(c2ccccc2)c2ccccc2)o1 [Example 1, (5-Dimethylaminomethyl-oxazol-2-yl)-diphenyv-methanol]	1 to 10
C[N+](C)(CCCOc1ccccc1)Cc1cnc(C(O)(c2ccccc2)c2ccccc2)o1 [Example 2, [2-(Hydroxy-diphenyl-methyl)-oxazol-5-ylmethyl]-dimethyl-(3-phenoxy-propyl)-ammonium formate]	< 1
C[N+](C)(CCCOc1ccccc1)Cc1cnc([C@@](O)(c2ccccc2)C2CCCCC2)o1 [Example 7, [2-((S)-Cyclohexyl-hydroxy-phenyl-methyl)-oxazol-5-ylmethyl]-dimethyl-(3-phenoxy-propyl)-ammonium bromide]	1 to 10
C[N+](C)(CCCOc1ccccc1)Cc1cnc([C@](O)(c2ccccc2)C2CCCCC2)o1 [Example 8, [2-((R)-Cyclohexyl-hydroxy-phenyl-methyl)-oxazol-5-ylmethyl]-dimethyl-(3-phenoxy-propyl)-ammonium bromide]	< 1
OC(c1ccccc1)(c1ccccc1)c1ncc(CN2CCC(Oc3ccccc3)CC2)o1 [Example 26, [5-(4-Phenoxy-piperidin-1-ylmethyl)-oxazol-2-yl]-diphenyl-methanol]	> 10
CN(C)Cc1cnc(C(C)(c2ccccc2)c2ccccc2)o1 [Example 30, [2-(1,1-Diphenyl-ethyl)-oxazol-5-ylmethyl]-dimethyl-amine]	> 10
C[N+](C)(CCc1ccccc1)Cc1cnc([C@@](O)(c2ccccc2)C2CCCCC2)o1 [Example 31, [2-((S)-Cyclohexyl-hydroxy-phenyl-methyl)-oxazol-5-ylmethyl]-dimethyl-phenethyl-ammonium bromide]	> 10
C[N+](C)(CCc1ccc2c(c1)CCO2)Cc1cnc([C@](O)(c2ccccc2)C2CCCCC2)o1 [Example 34, [2-((R)-Cyclohexyl-hydroxy-phenyl-methyl)-oxazol-5-ylmethyl]-[2-(2,3-dihydro-benzofuraan-5-yl)-ethyl]-dimethyl-ammonium bromide]	< 1
C[N+](C)(CCCOc1ccccc1)Cc1cnc([C@](O)(c2ccccc2)C2CCCC2)o1 [Example 37, [2-(Cyclopentyl-hydroxy-phenyl-methyl)-oxazol-5-ylmethyl]-dimethyl-(3-phenoxy-propyl)-ammonium bromide]	< 1
O[C@](c1ccccc1)(c1ncc(C[N+]2(CCCOc3ccccc3)CCCCC2)o1)C1CCCCC1 [Example 38, 1-[2-(Cyclohexyl-hydroxy-phenyl-methyl)-oxazol-5-ylmethyl]-1-(3-phenoxy-propyl)-piperidinium bromide]	1 to 10
O[C@@](c1ccccc1)(c1ncc(C[N+]2(CCCOc3ccccc3)CCCCC2)o1)C1CCCCC1 [Example 39, 1-[2-(Cyclohexyl-hydroxy-phenyl-methyl)-oxazol-5-ylmethyl]-1-(3-phenoxy-propyl)-piperidinium bromide]	> 10
O[C@](c1ccccc1)(c1ncc(C[N+]2(CCCOc3ccccc3)CCCC2)o1)C1CCCCC1 [Example 40, 1-[2-(Cyclohexyl-hydroxy-phenyl-methyl)-oxazol-5-ylmethyl]-1-(3-phenoxy-propyl)-pyrrolidinium bromide]	< 1

Continued, values first:

Ki [nM]	Compound
> 10	CN(C)Cc1cnc([C@@](O)(c2ccccc2)C2CCCCC2)o1 (single isomer, unassigned) [Example 5]
< 1	CN(C)Cc1cnc([C@](O)(c2ccccc2)C2CCCCC2)o1 (single isomer, unassigned) [Example 6]
> 10	CN(CCCOc1ccccc1)Cc1cnc([C@@](O)(c2ccccc2)C2CCCCC2)o1 (single isomer, unassigned) [Example 14]
1 to 10	CN(CCCOc1ccccc1)Cc1cnc([C@](O)(c2ccccc2)C2CCCCC2)o1 (single isomer, unassigned) [Example 15]
> 10	CN(Cc1ccccc1)Cc1cnc([C@](O)(c2ccccc2)C2CCCC2)o1 (single isomer, unassigned) [Example 28, {5-[(Benzyl-methyl-amino)-methyl]-oxazol-2-yl}-cyclopentyl-phenyl-methanol]
> 10	CN(Cc1ccccc1)Cc1cnc([C@@](O)(c2ccccc2)C2CCCC2)o1 (single isomer, unassigned) [Example 29, {5-[(Benzyl-methyl-amino)-methyl]-oxazol-2-yl}-cyclopentyl-phenyl-methanol]
1 to 10	CN(C)CCc1cnc(C(O)(c2ccccc2)C2CCCCC2)o1 (single isomer, unassigned) [Example 66]
< 1	CN(C)CCc1cnc(C(O)(c2ccccc2)C2CCCCC2)o1 (single isomer, unassigned) [Example 67]
< 1	CN(C)Cc1cnc(C(O)(c2ccccc2)C2CCCCC2)o1 (centres unmarked) [Example 4, Cyclohexyl-(5-dimethylaminomethyl-oxazol-2-yl)-phenyl-methanol]
1 to 10	CN(CCCOc1ccccc1)Cc1cnc(C(O)(c2ccccc2)C2CCCCC2)o1 (centres unmarked) [Example 13, Cyclohexyl-(5-{[methyl-(3-phenoxy-propyl)-amino]-methyl}-oxazol-2-yl)-phenyl-methanol]
< 1	C[N+](C)(CCc1ccccc1)Cc1cnc([C@](O)(c2ccccc2)C2CCCCC2)o1 [Example 32, [2-((R)-Cyclohexyl-hydroxy-phenyl-methyl)-oxazol-5-ylmethyl]-dimethyl-phenethyl-ammonium bromide]
< 1	CC(C)=CCC[N+](C)(C)Cc1cnc([C@](O)(c2ccccc2)C2CCCCC2)o1 [Example 33, [2-((R)-Cyclohexyl-hydroxy-phenyl-methyl)-oxazol-5-ylmethyl]-dimethyl-(4-methyl-pent-3-enyl)-ammonium bromide]
1 to 10	Cc1cccc(C[N+](C)(C)Cc2cnc([C@](O)(c3ccccc3)C3CCCCC3)o2)n1 [Example 35, [2-((R)-cyclohexyl-hydroxy-phenyl-methyl)-oxazol-5-ylmethyl]-dimethyl-(6-methyl-pyridin-2-ylmethyl)-ammonium formate]
